Results published in US7662565B2, “Approaches to identify less harmful tobacco and tobacco products” (Vector Tobacco, Inc., priority 2004, dated 2010).
Read-outs that look alike come from different tables or passages of the source.

Columns and labels:
tobacco leaf disks = test: Norflurazone resistance of tobacco leaf disks transformed with PDSM genes; conditions: Agrobacterium transformation of tobacco leaf disks; various norflurazone concentrations
Procedure: Other aspects of the invention concern the discovery of several mutants of the phytoene desaturase gene that confer resistance to the herbicide norflurazone (e.g., SEQ. ID. Nos.10, 11, and 12). These herbicide resistance genes were used as selectable markers in the transformations above. Typically, the selection was accomplished by introducing the transformed plant tissue to the norflurazone (e.g., 0.005 uM-0.1 uM conc.). That is, the concentration of norflurazone that can be used to select positive transformants containing a norflurazone resistance gene, as described herein can be at least, less than, greater than, or equal to 0.005, 0.006, 0.007, 0.008, 0.009, 0.01, 0.02, 0.03, 0.04, 0.05, 0.06, 0.07, 0.08, 0.09, 0.1, 0.2, 0.3, 0.4, 0.5, 0.6, 0.7, 0.8, 0.9, or 1.0 uM. Preferably, less than or equal to 0.05 uM concentration of norflurazone is used when selecting transformants with Flue-cured tobacco and less than or equal to 0.0125 uM concentration norflurazone is used when selecting transformants with Burley tobacco. As the plantlet develops, selection was accomplished by differentiating the green shoots (positive transformants) from the yellow or white shoots (negative transformants). Once selection was made, the herbicide was removed and the plantlet was allowed to develop in the greenhouse.
The norflurazone resistant phytoene desaturase mutants (PDSM-1, PDSM-2, and PDSM-3) were generated by site-directed mutagenesis of particular regions of the gene believed to be involved in binding of the herbicide. Constructs carrying the various PDSM genes were then transferred to tobacco leaf disks by conventional Agrobacterium transformation and the resistance to norflurazone was analyzed at various concentrations. After several iterations, the mutants described as SEQ. ID. […] Accordingly, aspects of the invention concern the PDSM genes described herein, their use in plants as selectable markers to identify plant cells that contain a transformed gene, whether in tissue culture or in the field, and methods of identifying new PDSM genes that confer norflurazone resistance.

A549 cells [1] = test: Clonogenic survival assay (Example 3); assay type: cell-based
Procedure: A clonogenic survival assay was used to study the ability of tobaccos and tobacco products to impact the proliferation of cells. The experiment involves four major steps: (1) inoculate cells into culture dishes and incubate for 24-48 hours; (2) upon reaching the logarithmic phase of growth, the treatment is applied; the treatment in this case is freshly prepared and diluted CS for increasing periods of time; (3) the cells are then allowed to recover for a set number of hours (up to 24), then the cells are trypsinized, replated at specific dilutions, and allowed to continue growing for 5-7 days; the number of cells used depends largely on the plating efficiency of the cell line and must be determined empirically prior to the experiment; and (4) at the conclusion of the experiment, the cells are fixed, stained, and counted. The primary measure is to count surviving colonies of 25-50 cells which is presented as the percentage of cells which survived the treatment. A graphical representation of survival versus exposure time to CS is then generated. The surviving fraction is determined by dividing the number of colonies in the dish by the number of the colonies in the control (non-treated) dish.
A549 cells were exposed to smoke as previously described (see above). Following smoke exposure the medium is aspirated and the cells rinsed refed with 37° C. BEGM and placed in a 37° C., 5% CO2 humidified incubator for two to three hours. The cells are harvested by trypsinization with trypsin-EDTA (0.25% trypsin-0.38 mg/ml EDTA, Invitrogen). Cells are centrifuged at 260×g for 8 min. Cell pellets are resuspended in 1 ml of Ham's F-12K medium, 10% FBS (complete medium) per pellet and counted. Cells are serially diluted so that the mock treated have ˜65 cells per well and smoke treated have ˜300 cells per well when seeded onto 96-well flat bottom tissue culture plates; one plate per condition. The plates are incubated for five days in a 37° C., 5% CO2 humidified incubator. The colonies of cells are fixed with 5% formaldehyde/PBS and colored with 0.8% crystal violet solution for visualization. The colonies are counted with the aid of a macroscopic dissecting microscope. The cloning efficiency results are expressed in relation to the mock exposed cells. Unless otherwise indicated, each bar in the graphs represents three replicate data points per experiment.
In yet another series of experiments, the effect of NAC on cell death caused by the VAPOR phase of smoke from different cigarettes was evaluated. A549 cells were exposed to the vapor phase of smoke for 20 min by inserting a Cambridge filter pad immediately after the cigarette in the smoking apparatus so as to filter out the particulate matter (“tar”) and leave only the vapor phase. […]

A549 cells [2] = test: γH2AX DNA damage assay, A549 cells exposed to whole smoke or vapor phase of smoke (Example 2); assay type: cell-based, human; conditions: for suppression of DNA damage (γH2AX): 25 mM NAC present during exposure; for effect of NAC on DNA damage: 25 mM NAC during exposure (FIG. 10); for IC50: Homo sapiens, from graph FIG. 11, read-out: concentration of NAC that reduced DNA damage by 50%
NHBE cells = test: γH2AX DNA damage assay, NHBE cells exposed to whole smoke or vapor phase of smoke (Example 2); assay type: cell-based, human
Source text: In order to compare DNA damage as a function of the cell's position in the cell cycle, γH2AX values were normalized to DNA content since histone content doubles as cells proceed from G1 to G2 phase. Thus, in order to determine any change in histone H2AX phosphorylation independent of changes in histone/DNA content or DNA ploidy, the values for S and G2M phase populations, gated according to DNA content, were multiplied by 0.75 and 0.5, respectively. In instances where “normalized” values of γH2AX are presented, these values were obtained by subtracting the mean values of each cell cycle population (or the total population) from the mean of the mock-treated population whose γH2AX values represent “scheduled” γH2AX expression. In all instances, the values presented represent the mean γH2AX fluorescence of the population; typically 3-5×10^3 cells were analyzed for each condition.
The response of NHBE cells to whole smoke from IM 16 cigarettes was more or less identical to that observed for A549 cells (FIG. 7C). The one difference between the two cell lines was that S phase cells in NHBE cultures always expressed higher “scheduled” amounts of γH2AX.
In the next series of experiments, it was determined that DNA damage caused by whole smoke can be mitigated by the presence of NAC. Using a standardized set of conditions (20 min of exposure followed by a 1 h recovery), DNA damage caused by whole smoke from IM 16 cigarettes was assayed in both A549 and NHBE cells. NAC at a concentration of 25 mM was either absent or present during exposure and absent or present during the 1 h recovery time. In this instance, the background or “scheduled” γH2AX expression observed in Mock-treated cells was subtracted from each measurement. The remaining fluorescence should be indicative of the level of DNA DSBs under each set of conditions.
The vapor phase from IM 16 CS cause only about 30% (29.7%) of the damage caused by whole smoke whereas the vapor phase of smoke from Quest 1® caused 97% less damage than whole smoke from IM 16 cigarettes.

## PDSM-3: Arabidopsis phytoene desaturase mutant gene, T to C at position 1226 (Leucine to Proline at residue 409)
Tobacco leaf disks
  resistance to norflurazone: confer resistance to norflurazone

## CC(=O)N[C@@H](CS)C(=O)O [NAC, N-acetyl-L-cysteine]
A549 cells [1]; 20 min IM16 smoke, various concentrations of NAC (FIG. 16)
  protection of cell viability by NAC: protected the viability of the cells in a dose-dependent manner
A549 cells [1]; 20 min Omni or IM16 smoke, 25 mM NAC
  protection of cell viability by NAC: partially protected
A549 cells [1]; 20 min Quest 3 smoke, 25 mM NAC
  protection of cell viability by NAC: completely protected
A549 cells [1]; all vapor phase exposures, 25 mM NAC
  protection of cell viability by NAC: protected the cells against viability loss
A549 cells [2]; A549, each cell cycle phase, vapor phase from Quest 1 and Quest 3
  effect of NAC on vapor phase damage: reduced damage to background levels
A549 cells [2]; A549, entire population, IM 16 whole smoke 20 min, 1 h recovery
  suppression of DNA damage (γH2AX): greater than 80%
A549 cells [2]; A549, entire population, IM 16 whole smoke, 25 mM NAC during exposure and during 1 h recovery
  suppression of γH2AX: 90%
A549 cells [2]; A549, IM 16 whole smoke, 25 mM NAC applied to the media following exposure only
  mitigation of DNA damage: did nothing to mitigate the DNA damage
A549 cells [2]; A549, smoke from IM 16
  effect of NAC on DNA damage: dramatically reduced the effects of smoke
A549 cells [2]; A549, smoke from Omni
  effect of NAC on DNA damage: reduced the damage to near background levels
A549 cells [2]; A549, smoke from Quest 3
  effect of NAC on DNA damage: reduced to background levels
A549 cells [2]; A549, vapor phase of smoke from IM 16, NAC during exposure
  reduction of γH2AX by NAC: 93.2%
A549 cells [2]; A549, vapor phase of smoke from Quest 1, NAC during exposure
  reduction of γH2AX by NAC: 98.9%
A549 cells [2]; A549, vapor phase of smoke from Quest 3, NAC during exposure
  reduction of γH2AX by NAC: 100%
A549 cells [2]; A549, whole smoke from IM 16, 25 mM NAC during exposure
  reduction of γH2AX by NAC: 89.1%
A549 cells [2]; A549 G1 cells, IM 16 whole smoke
  suppression of DNA damage (γH2AX): 91%
A549 cells [2]; A549 G1 phase, vapor phase of smoke from IM 16
  reduction of damage by NAC: 98.5%
A549 cells [2]; A549 G2M cells, IM 16 whole smoke
  suppression of DNA damage (γH2AX): 88%
A549 cells [2]; A549 G2M phase, vapor phase of smoke from IM 16
  reduction of damage by NAC: 92.2%
A549 cells [2]; A549 S phase cells, IM 16 whole smoke
  suppression of DNA damage (γH2AX): 82%
A549 cells [2]; A549 S phase, vapor phase of smoke from IM 16
  reduction of damage by NAC: 89.0%
A549 cells [2]; G1 and G2M A549 cells, IM 16 whole smoke 20 min, 1 h recovery
  concentration dependence of NAC protection: began to decrease when as little as 1 mM NAC was present
A549 cells [2]; A549, G1 phase A549 cells, IM 16 whole smoke
  IC50: ~4.5 mM
A549 cells [2]; A549, G2M phase A549 cells, IM 16 whole smoke
  IC50: ~7.5 mM
A549 cells [2]; A549, S phase A549 cells, IM 16 whole smoke
  IC50: ~2.6 mM
A549 cells [2]; S phase A549 cells, IM 16 whole smoke 20 min, 1 h recovery
  concentration dependence of NAC protection: unaffected by the presence of NAC up to a concentration of 5 mM
NHBE cells; NHBE G1 cells, IM 16 whole smoke, 25 mM NAC present during exposure
  decrease of DNA damage by NAC: ~69%
NHBE cells; NHBE G2M cells, IM 16 whole smoke, 25 mM NAC present during exposure
  decrease of DNA damage by NAC: about 65%
NHBE cells; NHBE S phase cells, IM 16 whole smoke, 25 mM NAC present during exposure
  protection by NAC: afforded no protection
NHBE cells; NHBE, IM 16 whole smoke, 25 mM NAC during exposure and recovery
  protection by NAC: small degree of additional protection
NHBE cells; NHBE, IM 16 whole smoke, 25 mM NAC only during recovery
  effect of NAC on level of DNA damage: little effect on the level of DNA damage
NHBE cells; NHBE, vapor phase of IM 16, Quest 1 or Quest 3
  effect of NAC on vapor phase DNA damage: abolished virtually all DNA damage
NHBE cells; NHBE, vapor phase of smoke from IM 16 (FIG. 13)
  effect of NAC on vapor phase damage: to background levels or below
NHBE cells; NHBE, vapor phase of smoke from Quest cigarettes
  effect of NAC on vapor phase damage: inhibited
NHBE cells; NHBE, whole smoke from IM 16, NAC during exposure
  reduction of γH2AX by NAC: 77.9%

## PDSM-2: Arabidopsis phytoene desaturase mutant gene, G to C at position 863 (Arginine to Proline at residue 288)
Tobacco leaf disks
  resistance to norflurazone: confer resistance to norflurazone

## PDSM-1: Arabidopsis phytoene desaturase mutant gene, T to G at position 1478 (Valine to Glycine at residue 493)
Tobacco leaf disks
  resistance to norflurazone: confer resistance to norflurazone
